Laboratory results: patent publication US20220275376A1, “TARGETING SLC38A2 IN PANCREATIC CANCER” (New York University, priority 2019, published 2022)

Legend:
HY19636 cells = test: Intracellular amino acid levels in SLC38A2-deficient HY19636 cells after alanine supplementation; assay type: cell-based, mouse; conditions: SLC38A2-deficient (sgSlc38a2 #1) HY19636 cells, 1 mM, 24 hours
Procedure: (A) Serine, glycine, proline, and glutamate extracellular fluxes in SLC38A2-deficient (sgSLC38A2 #1, #3) and control (sgTom) HY19636, MiaPaCa2, and PANC1 cells cultured in DMEM. Extracellular accumulation (+, secretion) or depletion (−, uptake) was measured in conditioned media over 24 hours and normalized to the viable cell density over the time course. Error bars depict s.d. of three independent experiments. (B) Essential amino acid (leucine, isoleucine, valine, threonine) uptake fluxes in SLC38A2-deficient (sgSLC38A2 #1, #3) and control (sgTom) HY19636, MiaPaCa2, and PANC1 cells cultured in DMEM for 24 hours. Error bars depict s.d. of three independent experiments. […] Data presented as a percent change for each amino acid relative to that measured in DMEM conditions. […]
For ^13C- and ^15N-labeled alanine tracing experiments, cells were plated into 6-well plates at 250,000 cells/well and allowed to attach overnight. […] Fatty acid labeling from ^13C3-alanine was measured by transferring 400 μL of the inorganic layer to a glass vial and evaporating under nitrogen flow in a needle evaporator prior to transesterification and GC-MS analysis. To quantify contribution to proteogenic amino acid pools, the insoluble interphase layer containing proteins was washed three times with HPLC-grade acetone and allowed to dry overnight with gentle nitrogen flow in a needle evaporator. […]

8988T cells = test: Alanine uptake from culture media conditioned by 8988T cells; assay type: cell-based; conditions: 10 μM, vs vehicle (DMSO), up to 96 hours
Procedure: (A) Alanine levels in culture media conditioned by 8988T cells treated with vehicle (DMSO) or fluvoxamine (FVX, 10 μM) over time. (B) Alanine uptake flux by 8988T cells treated with vehicle (DMSO) or fluvoxamine (FVX, 10 μM) for 96 hours. Data were normalized to cell growth over the treatment period. (C) Glutamine levels in culture media conditioned by 8988T cells treated with vehicle (DMSO) or fluvoxamine (FVX, 10 μM) over time. (D) Absolute values for amino acid uptake or secretion flux by 8988T cells treated with vehicle (DMSO) or fluvoxamine (FVX, 10 μM) for 96 hours. Data were normalized to cell growth over the treatment period.
Fluvoxamine (FVX), fluoxetine (FLX), paroxetine (PXT), sertindole (SND), and blonanserin (BNS) were acquired from Cayman Chemicals. Desipramine (DPM), α-(Methylamino) isobutyric acid (MeAIB), and L-alanine were acquired from Sigma. Stocks were prepared at 10 mM or 7.5 mM (BNS) in DMSO. Cells were treated with vehicle (DMSO) or varying concentrations of drug for indicated time. Conditioned media was collected and centrifuged at 1,000×g to remove cell debris followed by extraction of metabolites. For metabolite extraction, cells were first washed with ice cold 0.9% NaCl to remove media contamination followed by addition of 500 μL methanol (−20° C.) and 200 μL HPLC grade water (4° C.). […]

SLC38A2 = target: T1, SLC38A2 (Homo sapiens, UniProt Q96QD8); test: SLC38A2 activity measured by MeAIB uptake in HY15549 dox-inducible SNAT2 cells; assay type: cell-based; conditions: 20 μm compound, MeAIB 0.3 mM, 1 hour, vs vehicle (PBS), HY15549 cells expressing dox-inducible SLC38A2/SNAT2
T1 construct: expressed in transfected cells; host or cells: HY15549 cells with dox-inducible SNAT2
T1 sequence (Q96QD8 1-506): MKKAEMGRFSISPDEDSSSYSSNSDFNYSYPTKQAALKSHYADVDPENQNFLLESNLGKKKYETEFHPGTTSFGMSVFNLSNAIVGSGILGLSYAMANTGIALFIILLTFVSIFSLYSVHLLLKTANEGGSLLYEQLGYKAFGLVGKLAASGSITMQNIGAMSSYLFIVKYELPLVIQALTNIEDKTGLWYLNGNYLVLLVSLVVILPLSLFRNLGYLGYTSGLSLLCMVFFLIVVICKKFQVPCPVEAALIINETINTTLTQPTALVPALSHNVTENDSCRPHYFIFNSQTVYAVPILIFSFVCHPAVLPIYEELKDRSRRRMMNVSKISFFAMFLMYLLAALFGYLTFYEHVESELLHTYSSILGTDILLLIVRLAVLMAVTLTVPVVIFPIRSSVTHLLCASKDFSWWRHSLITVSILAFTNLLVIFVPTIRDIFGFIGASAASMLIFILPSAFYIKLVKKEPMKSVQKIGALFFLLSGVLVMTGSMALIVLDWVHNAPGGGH
Procedure: (A) Schematic depicting SLC38A2-dependent update of alanine structural analog, methyl α-aminoisobutyrate (MeAIB). […] (B) Total ion chromatogram (TIC) of HY15549 dox-inducible SNAT2 cells treated with 1 mM MeAIB for 24 hours compared to vehicle (PBS). […] HY15549 dox-inducible SNAT2 cells were cultured with a concentration gradient of MeAIB for 15 minutes (gray circles) or 60 minutes (black squares). (D) Western blot depicting SLC38A2 expression relative to doxycycline after 24 hours culture in HY15549 dox-inducible SNAT2 cells. (E) Intracellular MeAIB levels in HY15549 dox-inducible cells cultured with dox (+SNAT2, left bar) and without dox (KO, right bar) for 24 hours with 1 mM MeAIB. (F) Intracellular MeAIB levels in HY15549 dox-inducible cells cultured with vehicle, paroxetine (PXT, 20 μM), or sertraline (SRT, 20 μm) for 24 hours with 300 μM MeAIB.

Row | Compound | rescue of amino acid defect (change in intracellular amino acids relative to DMEM) (HY19636 cells) | alanine uptake in PDAC cells (8988T cells) | inhibition of MeAIB uptake (intracellular MeAIB levels) (SLC38A2)
1 | C[C@H](N)C(=O)OC(C)(C)C [L-alanine tert-butyl ester] | failed to rescue amino acid defect |  | 
2 | C[C@H](N)C(=O)O [L-alanine] | failed to rescue amino acid defect |  | 
3 | COCCCC/C(=N\OCCN)c1ccc(C(F)(F)F)cc1 [fluvoxamine] |  | significantly and specifically inhibits alanine uptake | inhibited
